Literature values, collected in patent US10507179B2, “Formulations of levosimendan for intravenous administration as infusion or injection and of infusion concentrate” (CARINOPHARM GmbH, priority 2015, dated 2019).
In brackets after ≈: the same amount, converted by molar mass. Several values for one entry are separate records, joined by “and”; a condition that tells them apart may be missing. Identical values can stand only once.

Tests used:
[1] = not given; remark: listed apart in the source

pKa: 6.3 and 6.26
solubility ([1]; pH value of 2): 0.02 mg/mL (≈ 71.4 µM)
stability in aqueous solutions ([1]; physiological pH): not stable
solubility in phosphate buffer ([1]; room temperature, physiological pH of 7.4): 0.4 mg/mL (≈ 1430 µM)
Compound: C[C@@H]1CC(=O)NN=C1c1ccc(NN=C(C#N)C#N)cc1 [Levosimendan, (−)-[[4-(1,4,5,6-tetrahydro-4-methyl-6-oxo-3-pyridazi-nyl)phenyl]hydrazono]propane dinitrile]
